The source of these data is patent US20080299186A1, “COATINGS FOR APPLYING SUBSTANCES ONTO SUBSTRATE CARRIER” (Schering-Plough Healthcare Products, Inc., priority 2007, published 2008).

Structures can show the parent of a compound that is named as a salt.

The data set is described as follows: Phenylephrine HCl stability study: chemical compatibility with film forming polymers and plasticizers, HPLC degradation products. The data set is classed as physicochemical.

Protocol: Methods: Chemical compatibility of Phenylephrine HCl with various film forming polymers or polymer blends and plasticizers (Table 2) was conducted. […] Two additional formulations (C and F) were used as controls. Sample C contained Phenylephrine HCl dissolved in water without any additional cellulosic or non-cellulosic polymers. Sample F comprised phenylephrine HCl in the absence of water. Both controls were subjected to the same drying conditions as the other example films prior to analysis.
Aliquots from the bulk coating dispersion equivalent to approximately 10 unit doses of the active were poured into flat, 4-6″ plastic weight boats and allowed to dry overnight for approximately 15-16 hours at 40C under vacuum. The amount per film equivalent to 10 unit doses was chosen for achieving reproducible and reliable analytical results for the Phenylephrine HCl degradants. […] These dried film samples were then stored at 50C in closed amber jars for 14 days. Each film was then analyzed by HPLC for the presence of degradation products. Separation of Phenylephrine HCl degradation products was accomplished on an HPLC using a Prontosil EPS C18, 100×4.6 mm (3 μparticle size) column manufactured by Bischoff Chromatography and using a gradient test method. Detection was by UV at 215 nm. The column was thermostated at 25° C. and an injection volume of 10 μL of sample solution was used. […]

`CNC[C@H](O)c1cccc(O)c1` [C, Phenylephrine HCl]: the “residual water after drying” value (after drying of the film sample) was 10-15%.

On to `CNC[C@H](O)c1cccc(O)c1` [F, Phenylephrine HCl], for which the “total PE degradation, result in words (compared with controls)” value (stored at 50C in closed amber jars for 14 days) is “no appreciable degradation occurred”.
